Test results: patent US9512084B2, “Amino pyrimidine derivatives” (Novartis AG, priority 2013, dated 2016)

Columns and labels:
[1] = biological target: full-length human recombinant BTK (Homo sapiens (Human), UniProt Q06187); experiment: Inhibition of Btk enzymatic activity (biochemical enzyme assay, Caliper); conditions: 6.4 nM enzyme solution, 164 μM ATP solution, 30° C., 60 minutes
Procedure: The inhibitory activity of the present compounds against Btk was assessed in a biochemical enzyme assay. […] The assay plates were prepared by addition of 50 nl per well of compound solution in 90% DMSO. […] Kinase reactions were analyzed on a Caliper LC3000 workstation by separating phosphorylated and unphosphorylated peptides and kinase activities were calculated from the amounts of newly formed phospho-peptide.

Btk = Btk (Rattus norvegicus, UniProt Q5S255); experiment: Inhibition of Btk activity in blood (in vitro B cell activation assay, CD86, rat whole blood); type: cell-based; conditions: Lewis rat whole blood diluted to 50%, anti-rat IgM + rat IL-4, 24 hours, CD86 on CD45RA positive B cells
Sequence of Btk (Q5S255 1-660): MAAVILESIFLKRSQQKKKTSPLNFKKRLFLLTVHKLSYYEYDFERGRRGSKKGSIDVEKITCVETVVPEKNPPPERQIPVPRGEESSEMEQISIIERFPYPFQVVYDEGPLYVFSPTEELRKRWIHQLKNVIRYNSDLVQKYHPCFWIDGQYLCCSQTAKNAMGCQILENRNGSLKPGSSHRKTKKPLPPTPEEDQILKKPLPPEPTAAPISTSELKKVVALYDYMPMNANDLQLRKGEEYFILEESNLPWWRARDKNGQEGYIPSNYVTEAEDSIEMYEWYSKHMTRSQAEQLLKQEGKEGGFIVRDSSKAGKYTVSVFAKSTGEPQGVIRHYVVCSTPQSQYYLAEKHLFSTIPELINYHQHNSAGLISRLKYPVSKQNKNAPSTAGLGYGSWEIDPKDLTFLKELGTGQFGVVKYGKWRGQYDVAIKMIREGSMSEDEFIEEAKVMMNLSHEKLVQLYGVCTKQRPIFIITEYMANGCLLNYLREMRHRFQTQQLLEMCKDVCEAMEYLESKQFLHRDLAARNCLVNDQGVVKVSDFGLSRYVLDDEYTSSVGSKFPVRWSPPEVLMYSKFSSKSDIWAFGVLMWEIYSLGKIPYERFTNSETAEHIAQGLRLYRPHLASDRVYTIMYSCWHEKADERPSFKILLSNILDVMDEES
Procedure: Alternatively, the inhibitory activity of the present compounds in blood was assessed in the following in vitro B cell activation assay. Whole blood was collected from the abdominal aorta of anaesthetized adult male Lewis rats and was anticoagulated with 100 U/ml sodium heparin. Blood was then diluted to 50% with high glucose DMEM (Amimed) supplemented with […] penicillin, […], 2 mM L-glutamin, 50 mg/ml dextran 40 and 5% FCS (Fetaclone I, Gibco). Then, 190 μl prediluted blood was mixed in 96 well U-bottomed microtiter plates (Nunc) with 10 μl of serial dilutions of test compounds in DMSO. […] Activation of B cells was measured by flow cytometry after staining for the B cell subset with PE-Cy5-labeled anti-ratCD45RA (Beckton-Dickinson) and for the activation marker CD86 (PE-labeled anti-rat CD86 (Beckton-Dickinson). All staining procedures were performed at RT for 30 min in the dark in 96-deep well V-bottomed microtiter plates (Corning) with BD Lysing Solution (Beckton-Dickinson).
Cytometric data was acquired on a FACScalibur flow cytometer (BD Biosciences) and the subpopulation of lymphocytes were gated according to size and granularity and further analyzed for expression of CD45RA and the activation markers. Data for the inhibition of B cell activation were calculated from the percentage of cells positively stained for activation markers within the CD45RA positive population.

Sequence of full-length human recombinant BTK (Q06187 whole entry): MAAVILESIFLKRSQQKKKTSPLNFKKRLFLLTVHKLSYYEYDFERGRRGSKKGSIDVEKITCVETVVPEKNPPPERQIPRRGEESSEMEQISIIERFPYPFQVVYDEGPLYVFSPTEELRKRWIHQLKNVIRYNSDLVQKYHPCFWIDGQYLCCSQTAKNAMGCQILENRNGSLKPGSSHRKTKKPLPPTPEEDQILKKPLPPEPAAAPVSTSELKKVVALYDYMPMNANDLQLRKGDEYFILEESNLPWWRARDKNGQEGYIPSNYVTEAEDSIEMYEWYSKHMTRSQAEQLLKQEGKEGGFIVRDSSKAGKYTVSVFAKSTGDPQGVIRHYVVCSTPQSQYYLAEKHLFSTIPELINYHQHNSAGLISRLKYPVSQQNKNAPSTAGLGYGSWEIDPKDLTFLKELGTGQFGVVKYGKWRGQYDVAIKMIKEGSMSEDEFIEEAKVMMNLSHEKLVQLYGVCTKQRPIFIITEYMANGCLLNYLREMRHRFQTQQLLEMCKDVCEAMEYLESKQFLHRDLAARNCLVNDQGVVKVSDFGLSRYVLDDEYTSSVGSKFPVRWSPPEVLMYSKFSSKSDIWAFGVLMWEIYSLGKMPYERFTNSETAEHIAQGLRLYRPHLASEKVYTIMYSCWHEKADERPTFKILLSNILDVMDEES

Structure (SMILES)	IC50 [1] [nM]	IC50 (Btk) [nM]
C#CC(=O)N1CC(Oc2c(N)ncnc2-c2cc(F)cc(NC(=O)c3ccc(C4CC4)cc3F)c2C)C1 [Example 3, N-(3-(6-Amino-5-((1-propioloylazetidin-3-yl)oxy)pyrimidin-4-yl)-5-fluoro-2-methylphenyl)-4-cyclopropyl-2-fluorobenzamide]	1	124
CC#CC(=O)N1CC(Oc2c(N)ncnc2-c2cc(F)cc(NC(=O)c3ccc(C4CC4)cc3F)c2C)C1 [Example 4, N-(3-(6-Amino-5-((1-(but-2-ynoyl)azetidin-3-yl)oxy)pyrimidin-4-yl)-5-fluoro-2-methylphenyl)-4-cyclopropyl-2-fluorobenzamide]	9	376
COC/C=C/C(=O)N(C)CCOc1c(N)ncnc1-c1cc(F)cc(NC(=O)c2ccc(C3CC3)cc2F)c1C [Example 9, (E)-N-(3-(6-Amino-5-(2-(4-methoxy-N-methylbut-2-enamido)ethoxy)pyrimidin-4-yl)-5-fluoro-2-methylphenyl)-4-cyclopropyl-2-fluorobenzamide]	10	240
C=CC(=O)N[C@@H](C)COc1c(N)ncnc1-c1cc(F)cc(NC(=O)c2ccc(C3CC3)cc2F)c1C [Example 17, (S)—N-(3-(5-(2-Acrylamidopropoxy)-6-aminopyrimidin-4-yl)-5-fluoro-2-methylphenyl)-4-cyclopropyl-2-fluorobenzamide]	5	246
CC#CC(=O)N[C@@H](C)COc1c(N)ncnc1-c1cc(F)cc(NC(=O)c2ccc(C3CC3)cc2F)c1C [Example 18, (S)—N-(3-(6-Amino-5-(2-(but-2-ynamido)propoxy)pyrimidin-4-yl)-5-fluoro-2-methylphenyl)-4-cyclopropyl-2-fluorobenzamide]	1	419
C=CC(=O)N(C)[C@@H](C)COc1c(N)ncnc1-c1cc(F)cc(NC(=O)c2ccc(C3CC3)cc2F)c1C [Example 19, (S)—N-(3-(6-Amino-5-(2-(N-methylacrylamido)propoxy)pyrimidin-4-yl)-5-fluoro-2-methylphenyl)-4-cyclopropyl-2-fluorobenzamide]	16	136
CC#CC(=O)N(C)[C@@H](C)COc1c(N)ncnc1-c1cc(F)cc(NC(=O)c2ccc(C3CC3)cc2F)c1C [Example 20, (S)—N-(3-(6-Amino-5-(2-(N-methylbut-2-ynamido)propoxy)pyrimidin-4-yl)-5-fluoro-2-methylphenyl)-4-cyclopropyl-2-fluorobenzamide]	5	330
CC#CC(=O)N1C[C@H](OC)C[C@H]1COc1c(N)ncnc1-c1cc(F)cc(NC(=O)c2ccc(C3CC3)cc2F)c1C [Example 27, N-(3-(6-Amino-5-(((2S,4R)-1-(but-2-ynoyl)-4-methoxypyrrolidin-2-yl)methoxy)pyrimidin-4-yl)-5-fluoro-2-methylphenyl)-4-cyclopropyl-2-fluorobenzamide]	3	76
CC#CC(=O)N1C[C@@H](OC)C[C@H]1COc1c(N)ncnc1-c1cc(F)cc(NC(=O)c2ccc(C3CC3)cc2F)c1C [Example 30, N-(3-(6-Amino-5-(((2S,4S)-1-(but-2-ynoyl)-4-methoxypyrrolidin-2-yl)methoxy)pyrimidin-4-yl)-5-fluoro-2-methylphenyl)-4-cyclopropyl-2-fluorobenzamide]	6	222
CC#CC(=O)N1C[C@H](F)C[C@H]1COc1c(N)ncnc1-c1cc(F)cc(NC(=O)c2ccc(C3CC3)cc2F)c1C [Example 32, N-(3-(6-Amino-5-(((2S,4R)-1-(but-2-ynoyl)-4-fluoropyrrolidin-2-yl)methoxy)pyrimidin-4-yl)-5-fluoro-2-methylphenyl)-4-cyclopropyl-2-fluorobenzamide]	4	55
C#CC(=O)N1CC[C@H]1COc1c(N)ncnc1-c1cc(F)cc(NC(=O)c2ccc(C3CC3)cc2F)c1C [Example 34, (S)—N-(3-(6-Amino-5-((1-propioloylazetidin-2-yl)methoxy)pyrimidin-4-yl)-5-fluoro-2-methylphenyl)-4-cyclopropyl-2-fluorobenzamide]	2	208

The remaining lines, values ahead:

IC50 [1] [nM]	IC50 (Btk) [nM]	Structure (SMILES)
38	1110	C/C=C/C(=O)N1CC(Oc2c(N)ncnc2-c2cc(F)cc(NC(=O)c3ccc(C4CC4)cc3F)c2C)C1 [Example 2, (E)-N-(3-(6-Amino-5-((1-(but-2-enoyl)azetidin-3-yl)oxy)pyrimidin-4-yl)-5-fluoro-2-methylphenyl)-4-cyclopropyl-2-fluorobenzamide]
10	323	Cc1c(NC(=O)c2ccc(C3CC3)cc2F)cc(F)cc1-c1ncnc(N)c1OCCN(C)C(=O)C1CO1 (stereo not shown) [Example 11, N-(2-((4-Amino-6-(3-(4-cyclopropyl-2-fluorobenzamido)-5-fluoro-2-methylphenyl)pyrimidin-5-yl)oxy)ethyl)-N-methyloxirane-2-carboxamide]
12	459	C=CC(=O)N(C)CCOc1c(N)ncnc1-c1cccc(-n2ccc3cc(C4CC4)cc(F)c3c2=O)c1 [Example 12, N-(2-((4-Amino-6-(3-(6-cyclopropyl-8-fluoro-1-oxoisoquinolin-2(1H)-yl)phenyl)pyrimidin-5-yl)oxy)ethyl)-N-methylacrylamide]
1	29	C=CC(=O)N(CCF)CCOc1c(N)ncnc1-c1cc(F)cc(NC(=O)c2ccc(C3CC3)cc2F)c1C [Example 15, N-(3-(6-Amino-5-(2-(N-(2-fluoroethyl)acrylamido)ethoxy)pyrimidin-4-yl)-5-fluoro-2-methylphenyl)-4-cyclopropyl-2-fluorobenzamide]
15	558	C=CC(=O)NC1(COc2c(N)ncnc2-c2cc(F)cc(NC(=O)c3ccc(C4CC4)cc3F)c2C)CC1 [Example 16, N-(3-(5-((1-Acrylamidocyclopropyl)methoxy)-6-aminopyrimidin-4-yl)-5-fluoro-2-methylphenyl)-4-cyclopropyl-2-fluorobenzamide]
1	57	CC#CC(=O)N1CCC[C@H]1COc1c(N)ncnc1-c1cc(F)cc(NC(=O)c2ccc(C3CC3)cc2F)c1C [Example 23, (S)—N-(3-(6-Amino-5-((1-(but-2-ynoyl)pyrrolidin-2-yl)methoxy)pyrimidin-4-yl)-5-fluoro-2-methylphenyl)-4-cyclopropyl-2-fluorobenzamide]
0.5	32	C=CC(=O)N1CCC[C@H]1COc1c(N)ncnc1-c1cc(F)cc(N2CCc3cc(C4CC4)ccc3C2=O)c1CO [Example 24, (S)-2-(3-(5-((1-Acryloylpyrrolidin-2-yl)methoxy)-6-aminopyrimidin-4-yl)-5-fluoro-2-(hydroxymethyl)phenyl)-6-cyclopropyl-3,4-dihydroisoquinolin-1(2H)-one]
1	65	C=CC(=O)N(C)CCOc1c(N)ncnc1-c1cc(F)cc(N2CCc3cc(C4CC4)ccc3C2=O)c1CO [Example 25, N-(2-((4-Amino-6-(3-(6-cyclopropyl-1-oxo-3,4-dihydroisoquinolin-2(1H)-yl)-5-fluoro-2-(hydroxymethyl)phenyl)pyrimidin-5-yl)oxy)ethyl)-N-methylacrylamide]
0.4	51	C=CC(=O)N1C[C@H](OC)C[C@H]1COc1c(N)ncnc1-c1cc(F)cc(NC(=O)c2ccc(C3CC3)cc2F)c1C [Example 26, N-(3-(5-(((2S,4R)-1-Acryloyl-4-methoxypyrrolidin-2-yl)methoxy)-6-aminopyrimidin-4-yl)-5-fluoro-2-methylphenyl)-4-cyclopropyl-2-fluorobenzamide]
1	33	C=CC(=O)N1C[C@H](OC)C[C@H]1COc1c(N)ncnc1-c1cc(F)cc(N2CCc3cc(C4CC4)ccc3C2=O)c1CO [Example 28, 2-(3-(5-(((2S,4R)-1-Acryloyl-4-methoxypyrrolidin-2-yl)methoxy)-6-aminopyrimidin-4-yl)-5-fluoro-2-(hydroxymethyl)phenyl)-6-cyclopropyl-3,4-dihydroisoquinolin-1(2H)-one]
4	134	C=CC(=O)N1C[C@@H](OC)C[C@H]1COc1c(N)ncnc1-c1cc(F)cc(NC(=O)c2ccc(C3CC3)cc2F)c1C [Example 29, N-(3-(5-(((2S,4S)-1-Acryloyl-4-methoxypyrrolidin-2-yl)methoxy)-6-aminopyrimidin-4-yl)-5-fluoro-2-methylphenyl)-4-cyclopropyl-2-fluorobenzamide]
2	25	C=CC(=O)N1C[C@H](F)C[C@H]1COc1c(N)ncnc1-c1cc(F)cc(NC(=O)c2ccc(C3CC3)cc2F)c1C [Example 31, N-(3-(5-(((2S,4R)-1-Acryloyl-4-fluoropyrrolidin-2-yl)methoxy)-6-aminopyrimidin-4-yl)-5-fluoro-2-methylphenyl)-4-cyclopropyl-2-fluorobenzamide]
